We go through eight compounds from PubChem BioAssay (NCI).

The structures appear in SMILES notation.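 Results reflect a 48-hour exposure of cells in 96-well plates to compound at five concentrations. The concentration for 50% growth inhibition is given as GI50. The concentration for full growth arrest is given as TGI.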

Some test systems named below: SW-620 colon; NCI-H23 lung; SF-268 CNS; SK-MEL-28 melanoma; M14 melanoma; OVCAR-4 ovarian; SK-OV-3 ovarian; PC-3 prostate; EKVX NSCLC; NCI/ADR-RES ovarian.
Test in all cases: NCI tumour cell line growth inhibition, 48 h

On to `NC(=O)c1cccnc1`, for which the GI50 with SW-620 colon, with NCI-H23 lung, in the assay on SF-268 CNS, in the assay with SK-MEL-28 melanoma, in the assay with M14 melanoma and with OVCAR-4 ovarian was above 100 µM throughout. The GI50 in the assay on SK-OV-3 ovarian, in the assay with PC-3 prostate, in the assay with EKVX NSCLC and in the assay with NCI/ADR-RES ovarian was above 100 µM each time. Also, the TGI with SW-620 colon, in the assay on NCI-H23 lung, in the assay with SF-268 CNS, with SK-MEL-28 melanoma, with M14 melanoma and in the assay on OVCAR-4 ovarian was above 100 µM throughout. The TGI in the assay on SK-OV-3 ovarian, in the assay on PC-3 prostate, with EKVX NSCLC and in the assay on NCI/ADR-RES ovarian was above 100 µM each time.

Take `CC(C)(C)[Si](C)(C)OC1[C@@H](CNC(N)=O)O[C@@H](n2cnc3c(NC(=O)Nc4ccccc4)ncnc32)[C@H]1O[Si](C)(C)C(C)(C)C` (some centres not stated): the GI50 in the assay with SW-620 colon is 0.981 µM; in the assay on NCI-H23 lung, 1.9 µM; with SF-268 CNS it was 1.04 µM; with SK-MEL-28 melanoma it was 6.71 µM; with M14 melanoma, 2 µM; with OVCAR-4 ovarian, 2.48 µM. The GI50 in the assay with SK-OV-3 ovarian is 3.29 µM; with PC-3 prostate, 0.814 µM; with EKVX NSCLC, 1.94 µM; in the assay on NCI/ADR-RES ovarian it was 2.93 µM. Also, the TGI with SW-620 colon came out at 1.87 µM; in the assay with NCI-H23 lung it was 7.83 µM; with SF-268 CNS it was 2.36 µM; in the assay on SK-MEL-28 melanoma it was 14 µM; in the assay with M14 melanoma, 8.11 µM; in the assay on OVCAR-4 ovarian, 10.1 µM. Further, the TGI in the assay with SK-OV-3 ovarian came out at 9.53 µM; in the assay with PC-3 prostate it was 1.99 µM; with EKVX NSCLC, 8.02 µM; in the assay with NCI/ADR-RES ovarian, 9.81 µM.

Turning to `Cc1ccc(S(=O)(=O)c2nc(-c3ccccc3)oc2S(C)(=O)=O)cc1`, the GI50 in the assay on SW-620 colon was 2.05 µM; in the assay with NCI-H23 lung, 6.73 µM; with SF-268 CNS, 10.6 µM; in the assay with SK-MEL-28 melanoma, 1.92 µM; in the assay with M14 melanoma, 1.74 µM; in the assay with OVCAR-4 ovarian, 1.92 µM. The GI50 with SK-OV-3 ovarian is 15.9 µM; with PC-3 prostate, 10.4 µM; in the assay on EKVX NSCLC, 6.08 µM; in the assay on NCI/ADR-RES ovarian, 7.43 µM. Moreover, the TGI was found to be 4.21 µM in the assay on SW-620 colon; 22.6 µM in the assay on NCI-H23 lung; 24.4 µM in the assay on SF-268 CNS; 3.77 µM in the assay with SK-MEL-28 melanoma; 3.63 µM in the assay with M14 melanoma; 3.72 µM in the assay with OVCAR-4 ovarian. In addition, the TGI in the assay on SK-OV-3 ovarian turned out to be 29.3 µM; in the assay on PC-3 prostate, 23.1 µM; with EKVX NSCLC, 19.3 µM; with NCI/ADR-RES ovarian, 45 µM.

As to `CCn1cc(/C=C2\Oc3cc(OCC#N)ccc3C2=O)c2cc(OC)ccc21`, the GI50 with SW-620 colon was 0.131 µM; in the assay on NCI-H23 lung it was 0.553 µM; with SF-268 CNS, 1.48 µM; in the assay with SK-MEL-28 melanoma, 6.71 µM; with M14 melanoma, 0.119 µM; in the assay on OVCAR-4 ovarian, 11.2 µM. Further, the GI50 is 1.7 µM in the assay with SK-OV-3 ovarian, 0.218 µM in the assay on PC-3 prostate, 1.44 µM in the assay on EKVX NSCLC and 0.161 µM in the assay on NCI/ADR-RES ovarian. Further, the TGI in the assay with SW-620 colon was above 100 µM; in the assay on NCI-H23 lung, above 80.8 µM; with SF-268 CNS it was above 55.6 µM; in the assay with SK-MEL-28 melanoma, above 100 µM; in the assay with M14 melanoma, above 100 µM; in the assay with OVCAR-4 ovarian, above 100 µM. The TGI was above 78.5 µM in the assay with SK-OV-3 ovarian, 53.8 µM in the assay with PC-3 prostate, above 100 µM in the assay with EKVX NSCLC and above 32.9 µM in the assay on NCI/ADR-RES ovarian.

With `FC(F)(F)c1ccc(-c2nn3ncccc3c2-c2ccnc(Nc3ccc4c(c3)OCCO4)n2)cc1`, the GI50 is above 25 µM with SW-620 colon; 14.7 µM in the assay on NCI-H23 lung; above 21.3 µM in the assay with SF-268 CNS; above 25 µM in the assay on SK-MEL-28 melanoma; 8.92 µM in the assay on M14 melanoma; 10.2 µM in the assay on OVCAR-4 ovarian. Also, the GI50 was 9.08 µM in the assay with SK-OV-3 ovarian, 7.32 µM in the assay with PC-3 prostate, 4.02 µM in the assay with EKVX NSCLC and 9.6 µM in the assay with NCI/ADR-RES ovarian. Further, the TGI in the assay with SW-620 colon, with NCI-H23 lung, in the assay on SF-268 CNS, in the assay on SK-MEL-28 melanoma, in the assay with M14 melanoma and in the assay with OVCAR-4 ovarian was above 25 µM each time. Further, the TGI with SK-OV-3 ovarian, in the assay on PC-3 prostate, in the assay on EKVX NSCLC and in the assay on NCI/ADR-RES ovarian was above 25 µM in each case.

`COc1cc([C@@H]2c3cc4c(cc3[C@H](OC(C)=O)[C@H]3COC(=O)[C@@H]23)OCO4)cc(OC)c1OC`: the GI50 in the assay on SW-620 colon was 0.36 µM; with NCI-H23 lung it was 0.333 µM; in the assay with SF-268 CNS, 0.358 µM; with SK-MEL-28 melanoma it was 0.729 µM; with M14 melanoma it was 0.242 µM; in the assay on OVCAR-4 ovarian it was 2.11 µM. For the same compound, the GI50 in the assay with SK-OV-3 ovarian is 0.334 µM; in the assay with PC-3 prostate it was 0.318 µM; with EKVX NSCLC, 0.489 µM; in the assay with NCI/ADR-RES ovarian, 0.336 µM. For the same compound, the TGI was above 100 µM with SW-620 colon; above 100 µM in the assay with SK-MEL-28 melanoma; 5.3 µM in the assay on M14 melanoma; above 100 µM in the assay on OVCAR-4 ovarian; above 100 µM in the assay with SK-OV-3 ovarian; above 100 µM with PC-3 prostate. This compound came in with a TGI in the assay with EKVX NSCLC above 100 µM.

Take `C=C(CN1CCc2c([nH]c3ccccc23)C1)c1ccc(C(=O)Nc2ccccc2N)cc1`: the GI50 is 3.89 µM in the assay on SW-620 colon; 3.73 µM in the assay with NCI-H23 lung; 2.89 µM in the assay on SF-268 CNS; 2.25 µM in the assay on SK-MEL-28 melanoma; 4.13 µM in the assay with M14 melanoma; 5.48 µM in the assay on OVCAR-4 ovarian. In addition, the GI50 is 3.14 µM in the assay on SK-OV-3 ovarian, 1.41 µM in the assay with PC-3 prostate, 2.14 µM in the assay on EKVX NSCLC and 1.51 µM with NCI/ADR-RES ovarian. Also, the TGI in the assay on SW-620 colon was found to be 28.5 µM; in the assay with NCI-H23 lung it was 19.9 µM; in the assay with SF-268 CNS, 10.8 µM; with SK-MEL-28 melanoma it was 16.1 µM; in the assay with M14 melanoma, 14.7 µM; in the assay on OVCAR-4 ovarian, 13.5 µM. For the same compound, the TGI amounted to 11.6 µM in the assay on SK-OV-3 ovarian, 29.9 µM with PC-3 prostate, 13.5 µM with EKVX NSCLC and 17.1 µM in the assay with NCI/ADR-RES ovarian.

For the compound `N=c1ccc2nc3ccc(N)cc3sc-2c1`, the GI50 with SW-620 colon was 3.92 µM; in the assay on NCI-H23 lung, 2.77 µM; with SF-268 CNS, 6.42 µM; in the assay on SK-MEL-28 melanoma, 13.1 µM; in the assay on M14 melanoma it was 4.34 µM; with OVCAR-4 ovarian, 3.78 µM. Further, the GI50 is 15.6 µM in the assay with SK-OV-3 ovarian, 2.56 µM in the assay on PC-3 prostate, 6.63 µM in the assay on EKVX NSCLC and 2.53 µM in the assay on NCI/ADR-RES ovarian. For the same compound, the TGI in the assay with SW-620 colon worked out at 23.5 µM; in the assay on NCI-H23 lung it was 14.3 µM; in the assay with SF-268 CNS it was 56.2 µM; in the assay with SK-MEL-28 melanoma, 32.6 µM; with M14 melanoma it was 21.8 µM; in the assay with OVCAR-4 ovarian, 13.5 µM. Moreover, the TGI in the assay on SK-OV-3 ovarian amounted to 63.5 µM; in the assay with PC-3 prostate, 15.6 µM; with EKVX NSCLC it was 81.1 µM; in the assay on NCI/ADR-RES ovarian it was 10.7 µM.
